From ChEMBL document CHEMBL4321788, “Rational Design of Multitarget-Directed Ligands: Strategies and Emerging Paradigms” (J Med Chem, 2019)

Columns and labels:
Rattus norvegicus = assay: Antinociceptive activity in Wistar rat model of acetic-acid induced nociception pain assessed as reduction in writhes by measuring reduction in hind limb extension at 0.01 mmol/0.1kg, ip pretreated for 30 min followed by acetic-acid treatment and measured every 5 mins for 30 mins relative to control; assay type: functional; set-up: scale not given: the % may be the effect or the level left
Homo sapiens = species: Homo sapiens; assay: Antioxidant activity in human M17 cell lysate assessed as trolox equivalents of ABTS radical scavenging activity incubated up to 10 mins; assay type: functional, subcellular
Lipoxygenase = Lipoxygenase (Glycine max, UniProt Q39829); assay: Inhibition of soya bean LOX assessed as reduction in formation of 13-hydroperoxylinoleic acid using sodium linoleate as substrate
Acetylcholinesterase = molecular target: T1, Acetylcholinesterase (Mus musculus, UniProt P21836); assay: Inhibition of mouse brain AChE
T1 sequence (P21836 whole entry): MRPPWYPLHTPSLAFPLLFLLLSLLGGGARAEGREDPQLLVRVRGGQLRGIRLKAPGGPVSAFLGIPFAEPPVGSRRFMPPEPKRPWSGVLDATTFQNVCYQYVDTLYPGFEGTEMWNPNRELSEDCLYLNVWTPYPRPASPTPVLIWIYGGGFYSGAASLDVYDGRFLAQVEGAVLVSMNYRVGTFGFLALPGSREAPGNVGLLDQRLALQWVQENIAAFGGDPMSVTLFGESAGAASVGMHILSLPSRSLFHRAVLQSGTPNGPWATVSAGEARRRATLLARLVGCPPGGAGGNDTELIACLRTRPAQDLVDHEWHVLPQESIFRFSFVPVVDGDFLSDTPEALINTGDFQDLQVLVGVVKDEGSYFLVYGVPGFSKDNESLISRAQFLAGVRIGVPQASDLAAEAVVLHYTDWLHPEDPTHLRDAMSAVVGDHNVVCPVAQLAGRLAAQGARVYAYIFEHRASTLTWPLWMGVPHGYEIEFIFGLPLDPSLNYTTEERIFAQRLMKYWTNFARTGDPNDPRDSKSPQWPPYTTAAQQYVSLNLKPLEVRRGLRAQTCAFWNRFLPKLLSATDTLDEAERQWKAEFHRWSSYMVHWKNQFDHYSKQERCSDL

[1] = molecular target: Histamine H2 receptor (Cavia porcellus) (UniProt P47747); assay: Binding affinity to histamine H2 receptor in guinea pig right atrium
[2] = Inhibition of ROS generation in human MC65 cells assessed as reduction in tetracycline removal-induced ROS level incubated for 48 hrs by DCFH-DA staining based flow cytometric analysis; assay type: functional, cell-based; details: MC65, 48 h
[3] = Neuroprotective activity against tetracycline removal-induced cytotoxicity in human MC65 cells assessed as increase in cell viability incubated for 72 hrs by MTT assay; assay type: functional, cell-based; details: MC65, 72 h
Substance-K receptor = molecular target: T2, Substance-K receptor (Homo sapiens, UniProt P21452); assay: Displacement of [3H]NKA from human NK2 receptor expressed in CHO cells membranes; assay type: cell membranes
T2 sequence (P21452 whole entry): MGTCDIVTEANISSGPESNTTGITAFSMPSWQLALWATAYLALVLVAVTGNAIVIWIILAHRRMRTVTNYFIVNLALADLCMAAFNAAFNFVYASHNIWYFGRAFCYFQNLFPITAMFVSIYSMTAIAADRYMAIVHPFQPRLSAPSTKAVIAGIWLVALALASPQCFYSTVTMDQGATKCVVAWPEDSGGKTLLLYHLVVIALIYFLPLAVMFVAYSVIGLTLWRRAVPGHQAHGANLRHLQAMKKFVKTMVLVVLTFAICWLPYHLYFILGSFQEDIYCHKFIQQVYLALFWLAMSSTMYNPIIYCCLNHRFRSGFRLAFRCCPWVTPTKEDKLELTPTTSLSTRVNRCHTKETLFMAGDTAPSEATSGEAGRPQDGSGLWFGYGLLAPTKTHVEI

Substance-P receptor = Substance-P receptor (Homo sapiens, UniProt P25103); assay: Displacement of [3H]Sar SP from human NK1 receptor expressed in CHO cells membranes; assay type: cell membranes
Neuromedin-K receptor = molecular target: T3, Neuromedin-K receptor (Homo sapiens, UniProt P29371); assay: Displacement of [125I][MePhe]NKB from human NK3 receptor expressed in CHO cells membranes; assay type: cell membranes
T3 sequence (P29371 whole entry): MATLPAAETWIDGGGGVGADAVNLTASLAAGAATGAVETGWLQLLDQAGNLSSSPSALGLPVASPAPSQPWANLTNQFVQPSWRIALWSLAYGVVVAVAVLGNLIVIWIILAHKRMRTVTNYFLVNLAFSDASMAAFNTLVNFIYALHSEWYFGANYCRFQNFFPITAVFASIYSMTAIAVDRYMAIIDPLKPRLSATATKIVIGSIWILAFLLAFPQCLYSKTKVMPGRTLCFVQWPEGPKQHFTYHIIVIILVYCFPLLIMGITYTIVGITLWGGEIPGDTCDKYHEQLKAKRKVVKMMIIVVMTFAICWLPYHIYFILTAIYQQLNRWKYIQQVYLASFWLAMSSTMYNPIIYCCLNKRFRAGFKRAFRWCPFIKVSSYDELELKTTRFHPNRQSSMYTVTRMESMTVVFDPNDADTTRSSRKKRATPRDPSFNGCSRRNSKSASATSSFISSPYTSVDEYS

[4] = molecular target: Sodium-dependent serotonin transporter (Rattus norvegicus, UniProt P31652); assay: Inhibition of rat synaptosome SERT
[5] = molecular target: Amyloid-beta precursor protein (Homo sapiens, UniProt P05067); assay: Inhibition of self-induced aggregation of amyloid beta (1 to 42) (unknown origin) incubated for 24 hrs by TEM analysis
Histamine H3 receptor = Histamine H3 receptor (Homo sapiens, UniProt Q9Y5N1); assay: Antagonist activity at human histamine H3 receptor stably expressed in HEK293 cells assessed as cAMP accumulation incubated for 60 mins by Eu-cAMP tracer based TR-FRET assay; assay type: functional, cell-based
[6] = molecular target: Histamine H1 receptor (Cavia porcellus) (UniProt P31389); assay: Binding affinity to histamine H1 receptor in guinea pig ileum incubated up to 20 mins; assay type: tissue-based
Chain of Histamine H1 receptor (Cavia porcellus) (P31389 whole entry): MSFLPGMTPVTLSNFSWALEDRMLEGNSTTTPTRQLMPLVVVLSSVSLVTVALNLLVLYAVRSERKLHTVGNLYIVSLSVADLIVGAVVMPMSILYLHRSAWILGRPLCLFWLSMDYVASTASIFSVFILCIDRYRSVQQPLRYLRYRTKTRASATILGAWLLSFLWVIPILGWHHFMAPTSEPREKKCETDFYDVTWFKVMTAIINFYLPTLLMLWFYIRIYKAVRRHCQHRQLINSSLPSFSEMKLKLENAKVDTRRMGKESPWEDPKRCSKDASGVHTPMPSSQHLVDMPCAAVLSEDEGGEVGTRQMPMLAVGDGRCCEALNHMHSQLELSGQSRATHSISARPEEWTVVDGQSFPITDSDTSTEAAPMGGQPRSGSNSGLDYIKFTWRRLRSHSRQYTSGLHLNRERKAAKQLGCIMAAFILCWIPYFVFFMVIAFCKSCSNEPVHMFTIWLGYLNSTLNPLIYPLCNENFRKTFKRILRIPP

Chain of Histamine H2 receptor (Cavia porcellus) (P47747 whole entry): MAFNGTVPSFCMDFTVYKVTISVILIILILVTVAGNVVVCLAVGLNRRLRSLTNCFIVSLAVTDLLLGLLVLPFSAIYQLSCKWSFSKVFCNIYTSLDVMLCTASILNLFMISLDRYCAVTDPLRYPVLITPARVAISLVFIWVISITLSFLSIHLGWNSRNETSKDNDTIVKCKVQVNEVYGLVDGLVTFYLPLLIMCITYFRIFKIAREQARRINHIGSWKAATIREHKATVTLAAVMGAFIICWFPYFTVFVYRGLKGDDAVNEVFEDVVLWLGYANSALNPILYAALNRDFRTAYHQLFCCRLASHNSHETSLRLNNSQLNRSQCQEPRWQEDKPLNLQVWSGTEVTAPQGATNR
Chain of Histamine H3 receptor (Q9Y5N1 whole entry): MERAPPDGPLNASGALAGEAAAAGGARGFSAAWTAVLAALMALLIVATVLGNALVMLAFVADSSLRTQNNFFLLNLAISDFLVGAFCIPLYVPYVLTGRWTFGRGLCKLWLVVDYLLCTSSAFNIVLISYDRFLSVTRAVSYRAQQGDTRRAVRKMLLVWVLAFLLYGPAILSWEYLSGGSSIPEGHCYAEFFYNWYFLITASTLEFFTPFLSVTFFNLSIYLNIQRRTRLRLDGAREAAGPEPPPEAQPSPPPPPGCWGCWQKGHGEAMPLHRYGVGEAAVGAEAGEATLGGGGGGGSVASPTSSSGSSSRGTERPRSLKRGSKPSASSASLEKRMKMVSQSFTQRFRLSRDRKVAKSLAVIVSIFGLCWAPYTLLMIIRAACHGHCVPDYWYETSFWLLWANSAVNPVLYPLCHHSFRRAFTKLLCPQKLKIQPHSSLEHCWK
Chain of Amyloid-beta precursor protein (P05067 whole entry): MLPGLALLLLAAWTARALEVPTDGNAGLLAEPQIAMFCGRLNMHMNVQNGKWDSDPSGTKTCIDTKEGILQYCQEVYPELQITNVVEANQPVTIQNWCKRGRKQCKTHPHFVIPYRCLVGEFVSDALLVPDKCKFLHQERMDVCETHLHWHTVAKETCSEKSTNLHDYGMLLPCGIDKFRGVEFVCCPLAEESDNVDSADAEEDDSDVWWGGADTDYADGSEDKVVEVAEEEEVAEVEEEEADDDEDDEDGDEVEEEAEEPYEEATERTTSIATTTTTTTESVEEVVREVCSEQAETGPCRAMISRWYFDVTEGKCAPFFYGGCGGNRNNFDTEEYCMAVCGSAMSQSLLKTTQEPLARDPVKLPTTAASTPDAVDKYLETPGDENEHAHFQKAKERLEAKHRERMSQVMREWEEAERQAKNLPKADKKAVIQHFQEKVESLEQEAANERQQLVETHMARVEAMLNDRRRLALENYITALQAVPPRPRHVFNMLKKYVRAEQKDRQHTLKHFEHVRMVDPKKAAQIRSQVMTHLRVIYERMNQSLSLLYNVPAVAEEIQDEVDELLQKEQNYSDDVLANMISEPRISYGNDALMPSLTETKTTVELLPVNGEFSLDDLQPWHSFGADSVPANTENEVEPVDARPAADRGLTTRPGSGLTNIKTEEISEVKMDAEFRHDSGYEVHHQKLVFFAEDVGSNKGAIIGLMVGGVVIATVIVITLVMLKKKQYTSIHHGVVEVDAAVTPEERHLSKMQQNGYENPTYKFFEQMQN
Chain of Substance-P receptor (P25103 whole entry): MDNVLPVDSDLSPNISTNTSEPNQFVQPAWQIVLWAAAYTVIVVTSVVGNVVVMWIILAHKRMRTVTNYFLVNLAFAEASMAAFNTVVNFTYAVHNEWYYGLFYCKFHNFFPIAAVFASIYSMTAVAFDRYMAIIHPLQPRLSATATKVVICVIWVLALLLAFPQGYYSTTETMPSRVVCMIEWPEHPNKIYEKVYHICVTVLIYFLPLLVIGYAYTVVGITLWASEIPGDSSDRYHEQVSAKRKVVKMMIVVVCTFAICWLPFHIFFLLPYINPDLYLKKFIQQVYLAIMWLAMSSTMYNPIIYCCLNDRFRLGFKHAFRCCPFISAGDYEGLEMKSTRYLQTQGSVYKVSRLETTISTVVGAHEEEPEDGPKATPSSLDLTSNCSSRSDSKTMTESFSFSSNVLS
Chain of Sodium-dependent serotonin transporter (P31652 whole entry): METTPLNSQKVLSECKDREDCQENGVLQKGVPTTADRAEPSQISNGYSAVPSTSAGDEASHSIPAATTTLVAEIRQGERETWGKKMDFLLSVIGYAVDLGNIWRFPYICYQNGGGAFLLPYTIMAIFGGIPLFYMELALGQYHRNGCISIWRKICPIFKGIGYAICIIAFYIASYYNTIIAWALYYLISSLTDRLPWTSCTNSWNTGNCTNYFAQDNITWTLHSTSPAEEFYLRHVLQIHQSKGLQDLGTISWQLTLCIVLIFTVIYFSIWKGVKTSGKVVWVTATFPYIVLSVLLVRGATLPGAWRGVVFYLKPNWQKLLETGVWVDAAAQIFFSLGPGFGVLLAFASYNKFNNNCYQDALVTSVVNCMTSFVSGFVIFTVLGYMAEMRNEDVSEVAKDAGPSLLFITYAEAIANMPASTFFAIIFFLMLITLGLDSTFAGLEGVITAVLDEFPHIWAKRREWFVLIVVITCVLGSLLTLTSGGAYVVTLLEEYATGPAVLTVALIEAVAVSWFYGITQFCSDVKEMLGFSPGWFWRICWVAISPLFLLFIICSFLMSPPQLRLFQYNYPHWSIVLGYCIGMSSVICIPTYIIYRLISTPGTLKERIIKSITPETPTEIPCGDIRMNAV

Question: For `CC(=O)Nc1ccc(O)cc1` [ACETAMINOPHEN], which Activity (Rattus norvegicus) is on record?
Answer: 66%

Question: Which Activity (Homo sapiens) does the source give for `Cc1c(C)c2c(c(C)c1O)CCC(C)(C(=O)O)O2` (stereo not drawn) here?
Answer: 1

Question: For `O=C(O)/C=C/c1cccc(Oc2ccccc2)c1`, which IC50 (Lipoxygenase) is on record?
Answer: 89000 nM

Question: Which IC50 (Acetylcholinesterase) does the source give for `CNCCC(Oc1ccc(C(F)(F)F)cc1)c1ccccc1` (stereo not drawn) [FLUOXETINE] here?
Answer: > 10000 nM

Question: For `CN(CCCNC(=O)NCCCOc1ccc(CN2CCCCC2)cc1)CCC(c1ccc(F)cc1)c1ccccn1` (stereo not drawn), which pKb [1] is on record?
Answer: 6.68

Question: Which Activity (Homo sapiens) does the source give for `CN(C)c1ccc(O)c(CNc2cccc3ccc(CO)nc23)c1` here?
Answer: 1.41

Question: Which results are given for `COc1ccc2[nH]cc(CCNC(=O)CC(=O)CCc3ccc(O)cc3)c2c1`?
Answer: IC50 [2]: 68 nM; EC50 [3]: 27.6 nM

Question: Which Ki (Substance-K receptor) does the source give for `CNC(=O)C[C@H]1CCCN(C2CCN(CC[C@@H](/C(CN(C)C(=O)c3cc(Cl)cc(Cl)c3)=N/OC)c3ccc(Cl)c(Cl)c3)CC2)C1` here?
Answer: 0.4 nM

Question: And the Ki (Substance-P receptor)?
Answer: 1.3 nM

Question: And the Ki (Neuromedin-K receptor)?
Answer: 0.3 nM

Question: Which IC50 [4] does the source give for `CCN(C)C(=O)Oc1cccc([C@H](C)N(C)C)c1` [RIVASTIGMINE] here?
Answer: > 1000 nM

Question: For `CCN(CC)CCCOc1ccc(-n2ccc(=O)c(O)c2C)cc1`, which IC50 [5] is on record?
Answer: 17200 nM

Question: And the IC50 (Histamine H3 receptor)?
Answer: 12.8 nM

Question: What does the source list for `COc1ccc(CN(CCN(C)CCCCCCN/C(=N/C#N)NCCCOc2cccc(CN3CCCCC3)c2)c2ccccn2)cc1`?
Answer: pKb [1]: 6.43; pKb [6]: 8.42

Question: With `CC(=O)Nc1cccc(OC(=O)/C=C/c2cccc(Oc3ccccc3)c2)c1` as the compound, how does the Activity (Rattus norvegicus) read?
Answer: 91 - 98.1%

Question: And the IC50 (Lipoxygenase)?
Answer: 340 nM
